# In PubChem BioAssay AID1845196 (Molecular Pharmacology Branch, DTP, NCI, 2023):
# Values joined by “and” are separate entries in the source; they are usually repeats but may differ in a detail not shown here. Equal entries are not always repeated.
# Test system: 292921-168-R tumor spheroid viability
# Assay: Anticancer human tumor 292921-168-R patient-derived pancreatic carcinoma cell line growth inhibition
# Conditions: spheroids with HUVEC and MSC; for viability, T/C: stronger effect = lower value
# Method in brief: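 Complex spheroids of malignant cells with endothelial cells and mesenchymal stem cells; agents alone or combined, from near clinical Cmax (or 10 microM if unknown) down in half-log steps, 0.25% DMSO final.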
# [1] = curve of first compound, second compound 0.003 µM
# [2] = second compound 0.003 µM, first compound 0.0316 µM
# [3] = second compound 0.003 µM, first compound 0.1 µM
# [4] = second compound 0.003 µM, first compound 0.316 µM
# [5] = second compound 0.003 µM, first compound 1 µM
# [6] = second compound 0.003 µM, first compound 3.16 µM
# [7] = second compound 0.003 µM, first compound 10 µM
# 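Further: spheroids exposed to compounds for 7 days.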
compound,measurement,setting,value
[2H]c1nc(C)nc([2H])c1-c1cc(NC[C@@H](C)c2cccc3c(C(=O)NC)ccnc23)ncn1 + COc1cc2c(cc1O)CCNC21CSC2c3c(OC(C)=O)c(C)c4c(c3C(COC1=O)N1C(O)C3Cc5cc(C)c(OC)c(O)c5C(C21)N3C)OCO4,IC50,"curve of first compound, second compound 30 pM",> 10000 nM
same,IC50,"curve of first compound, second compound 94.9 pM",> 10000 nM
same,IC50,"curve of first compound, second compound 0.0003 µM",< 31.6 nM
same,IC50,"curve of first compound, second compound 0.000949 µM",< 31.6 nM
same,IC50,[1],< 31.6 nM
same,"viability, T/C","second compound 30 pM, first compound 0.0316 µM",108%
same,"viability, T/C","second compound 30 pM, first compound 0.1 µM",99.4%
same,"viability, T/C","second compound 30 pM, first compound 0.316 µM",99.7%
same,"viability, T/C","second compound 30 pM, first compound 1 µM",117%
same,"viability, T/C","second compound 30 pM, first compound 3.16 µM",105%
same,"viability, T/C","second compound 30 pM, first compound 10 µM",103%
same,"viability, T/C","second compound 94.9 pM, first compound 0.0316 µM",99.2%
same,"viability, T/C","second compound 94.9 pM, first compound 0.1 µM",102%
same,"viability, T/C","second compound 94.9 pM, first compound 0.316 µM",104%
same,"viability, T/C","second compound 94.9 pM, first compound 1 µM",106%
same,"viability, T/C","second compound 94.9 pM, first compound 3.16 µM",101%
same,"viability, T/C","second compound 94.9 pM, first compound 10 µM",99.8%
same,"viability, T/C","second compound 0.0003 µM, first compound 0.0316 µM",37.5%
same,"viability, T/C","second compound 0.0003 µM, first compound 0.1 µM",58.4%
same,"viability, T/C","second compound 0.0003 µM, first compound 0.316 µM",52.1%
same,"viability, T/C","second compound 0.0003 µM, first compound 1 µM",48.2%
same,"viability, T/C","second compound 0.0003 µM, first compound 3.16 µM",46%
same,"viability, T/C","second compound 0.0003 µM, first compound 10 µM",41%
same,"viability, T/C","second compound 0.000949 µM, first compound 0.0316 µM",4.08%
same,"viability, T/C","second compound 0.000949 µM, first compound 0.1 µM",3.23%
same,"viability, T/C","second compound 0.000949 µM, first compound 0.316 µM",4.22%
same,"viability, T/C","second compound 0.000949 µM, first compound 1 µM",2.93%
same,"viability, T/C","second compound 0.000949 µM, first compound 3.16 µM",3.26%
same,"viability, T/C","second compound 0.000949 µM, first compound 10 µM",2.21%
same,"viability, T/C",[2],0.18%
same,"viability, T/C",[3],0.19%
same,"viability, T/C",[4],0.19%
same,"viability, T/C",[5],0.18%
same,"viability, T/C",[6],0.19%
same,"viability, T/C",[7],0.34%
CC[C@@]1(O)C(=O)OCc2c1cc1n(c2=O)Cc2cc3c(CN(C)C)c(O)ccc3nc2-1,"viability, T/C",compound 0.003 µM,94.9% [middle of 10 runs]
same,"viability, T/C",compound 0.00949 µM,77.4% [middle of 10 runs]
same,"viability, T/C",compound 0.03 µM,36.8% [middle of 10 runs]
same,"viability, T/C",compound 0.0949 µM,12.2% [middle of 10 runs]
same,"viability, T/C",compound 0.3 µM,4.45% [middle of 10 runs]
same,IC50,"compound alone, run of 10/17/2019",19.4 nM [middle of 5 runs]
same,IC50,"compound alone, run of 10/25/2019",22.6 nM [middle of 4 runs]
CC1COCCN1c1cc(-c2ccnn2C)c2ccnc(-c3ccn[nH]3)c2n1 (stereo unspecified) + CC[C@@]1(O)C(=O)OCc2c1cc1n(c2=O)Cc2cc3c(CN(C)C)c(O)ccc3nc2-1,IC50,[1],< 31.6 nM
same,IC50,"curve of first compound, second compound 0.00949 µM",< 31.6 nM
same,IC50,"curve of first compound, second compound 0.03 µM",< 31.6 nM
same,IC50,"curve of first compound, second compound 0.0949 µM",< 31.6 nM
same,IC50,"curve of first compound, second compound 0.3 µM",< 31.6 nM
same,"viability, T/C",[2],22.8%
same,"viability, T/C",[3],13.6%
same,"viability, T/C",[4],10%
same,"viability, T/C",[5],12.2%
same,"viability, T/C",[6],14.4%
same,"viability, T/C",[7],15.4%
same,"viability, T/C","second compound 0.00949 µM, first compound 0.0316 µM",11.6%
same,"viability, T/C","second compound 0.00949 µM, first compound 0.1 µM",9.97%
same,"viability, T/C","second compound 0.00949 µM, first compound 0.316 µM",10%
same,"viability, T/C","second compound 0.00949 µM, first compound 1 µM",11.8%
same,"viability, T/C","second compound 0.00949 µM, first compound 3.16 µM",13.8%
same,"viability, T/C","second compound 0.00949 µM, first compound 10 µM",15%
same,"viability, T/C","second compound 0.03 µM, first compound 0.0316 µM",8.44%
same,"viability, T/C","second compound 0.03 µM, first compound 0.1 µM",7.98%
same,"viability, T/C","second compound 0.03 µM, first compound 0.316 µM",9.15%
same,"viability, T/C","second compound 0.03 µM, first compound 1 µM",10.8%
same,"viability, T/C","second compound 0.03 µM, first compound 3.16 µM",12.5%
same,"viability, T/C","second compound 0.03 µM, first compound 10 µM",14.3%
same,"viability, T/C","second compound 0.0949 µM, first compound 0.0316 µM",4.99%
same,"viability, T/C","second compound 0.0949 µM, first compound 0.1 µM",4.72%
same,"viability, T/C","second compound 0.0949 µM, first compound 0.316 µM",5.08%
same,"viability, T/C","second compound 0.0949 µM, first compound 1 µM",8.1%
same,"viability, T/C","second compound 0.0949 µM, first compound 3.16 µM",10.9%
same,"viability, T/C","second compound 0.0949 µM, first compound 10 µM",12.6%
same,"viability, T/C","second compound 0.3 µM, first compound 0.0316 µM",2.78%
same,"viability, T/C","second compound 0.3 µM, first compound 0.1 µM",2.83%
same,"viability, T/C","second compound 0.3 µM, first compound 0.316 µM",3.27%
same,"viability, T/C","second compound 0.3 µM, first compound 1 µM",4.98%
same,"viability, T/C","second compound 0.3 µM, first compound 3.16 µM",6.98%
same,"viability, T/C","second compound 0.3 µM, first compound 10 µM",9.23%
Cc1cc(C)c(CNC(=O)c2cc(-c3ccc(CN4CCOCC4)cc3)cc3c2cnn3C2CCCC2)c(=O)[nH]1,"viability, T/C",compound 0.0316 µM,103% and 102% and 97.1%
same,"viability, T/C",compound 0.1 µM,101% and 104% and 88.9%
same,"viability, T/C",compound 0.316 µM,110% and 97.8% and 101%
same,"viability, T/C",compound 1 µM,106% and 103% and 98.5%
same,"viability, T/C",compound 3.16 µM,102% and 88.8% and 103%
same,"viability, T/C",compound 10 µM,75.6% and 68.8% and 63.9%
same,IC50,curve of compound,> 10000 nM
COc1cc(C)[nH]c(=O)c1CN1CCc2c(Cl)cc(C(OC)C3COC3)c(Cl)c2C1=O (stereo unspecified),"viability, T/C",compound 0.0316 µM,108% and 97.3% and 113%
same,"viability, T/C",compound 0.1 µM,112% and 106% and 113%
same,"viability, T/C",compound 0.316 µM,115% and 92.9% and 89.7%
same,"viability, T/C",compound 1 µM,109% and 95.4% and 97.2%
same,"viability, T/C",compound 3.16 µM,90.3% and 89.2% and 90.4%
same,"viability, T/C",compound 10 µM,101% and 89.8% and 75.1%
same,IC50,curve of compound,> 10000 nM
